≈ marks a conversion by molar mass, not a printed value. Like-named read-outs stand apart in the source and are kept apart here.
Legend:
[1] = test system: M. tuberculosis H37Rv; assay: Resazurin MIC assay, pan-sensitive strain; assay type: cell-based; conditions: Mycobacterium tuberculosis, 48 h
[2] = test system: M. tuberculosis H37Rv; assay: MBC assay with H37Rv; assay type: cell-based; conditions: Mycobacterium tuberculosis, 504 h; performed with H37Rv; concentration that inhibits ≥ 99.9% of the initial bacterial inoculum; 3 weeks on 7H10 agar at 37°C
Experimental: The MBC assay with H37Rv was performed as an adjunct to the MIC assay and was used to determine the concentration of drug that is lethal to the target bacterium in vitro. A small aliquot (i.e., 10 µl) was removed from appropriate dilutions in the 96-well plate used to determine the MIC value with subsequent streaking on 7H10 agar plates. Five wells were selected, representing the well yielding the MIC value and 2 wells above and below the well that yielded the MIC value. After 3 weeks of incubation at 37°C, the agar plates were inspected for the presence or absence of growth. The MBC value is the concentration in µg/ml that inhibits ≥ 99.9% of the initial bacterial inoculum. Antimicrobials are usually regarded as bactericidal if the MBC is no more than four times the MIC. while the bacteriostatic agents have MIC values that are much lower than the MBC.

[3] = Precipitation noted during the MIC assay; assay type: physicochemical; conditions: observed in the MIC assay plates, 7H9 medium
Experimental: Stock solutions were prepared at 3.2 mg/ml which were then diluted as indicated below: 1. 20 µl of the 3.2 mg/ml stock of the test compound were added to a 96-well microtiter plate. 2. 2-fold dilutions were made by the addition of 20 µl of diluent.
3. Each dilution was further diluted 1:10 in sterile water (10 µl of dilution to 90 µl of sterile water). Note: The additional 10-fold dilution in water is required when DMSO is used as solvent to minimize toxicity to the bacteria. For uniformity in the assay procedure, this dilution step was used even if water or other solvents were used.
The following steps are followed in preparing the 96-wcll plates: • 1. 6.25 µl of each dilution were transferred to duplicate 96-well test plates. • 2. 93.75 µl of the cell suspension (∼ 10^4 bacteria) in 7H9 medium were added to the test plates. • 3. Positive, negative, sterility and resazurin controls were tested: • a. Positive controls include: appropriate antibiotics for each resistant strain and rifampicin and isoniazid for 113 7Rv • b. Negative controls include: • i. cell culture with solvent and water • i.i. cell culture only • c. Sterility controls include: • i. medium only • ii. medium with solvent and water • d. […] This control plate is needed to verify whether the compound reacts with resazurin that could possibly elicit fluorescence. • 4. […]

[4] = Table 3, standard test strain H37Rv, read-out: MIC Value (µg/ml) H37Rv*
[5] = H37RV, Table 2, Resazurin MIC assay, […], read-out: MIC H37Rv

Structure (SMILES) | MIC [1, 4] | MIC [1, 5] | MBC [2] | Comments (precipitation) [3]
O=C1Nc2ccc(Cl)cc2C1=NNC(=O)c1ccncc1 [Compound 3a] | 1.25 µg/mL (≈ 4.16 µM) | 1.25 µg/mL (≈ 4.16 µM) | 1.25 µg/mL (≈ 4.16 µM) | Precipitation observed at 10 µg/ml
O=C1Nc2ccc(F)cc2C1=NNC(=O)c1ccncc1 [Compound 3b, reference compound] |  | 10 µg/mL (≈ 35.2 µM) |  | 
O=C1Nc2ccc([N+](=O)[O-])cc2C1=NNC(=O)c1ccncc1 [Compound 3c] | 0.156 µg/mL (≈ 0.501 µM) | 0.156 µg/mL (≈ 0.501 µM) | 0.31 µg/mL (≈ 0.996 µM) | 
O=C1Nc2ccc(F)cc2C1=NNC(=O)c1ccc([N+](=O)[O-])o1 [Compound 3d] |  | 5 µg/mL (≈ 15.7 µM) |  | 
O=C1Nc2ccc(OC(F)(F)F)cc2C1=NNC(=O)c1ccc([N+](=O)[O-])o1 [Compound 3e] | 2.5 µg/mL (≈ 6.51 µM) | 2.5 µg/mL (≈ 6.51 µM) | 2.5 µg/mL (≈ 6.51 µM) | 
O=C(NN=C1C(=O)N(c2ccccc2)c2ccccc21)c1ccc([N+](=O)[O-])o1 [Compound 3f] |  | 5 µg/mL (≈ 13.3 µM) |  | 
O=C(NN=C1C(=O)N(Cc2ccccc2)c2ccccc21)c1ccc([N+](=O)[O-])o1 [Compound 3g] | 0.156 µg/mL (≈ 0.4 µM) | 0.156 µg/mL (≈ 0.4 µM) | 0.156 µg/mL (≈ 0.4 µM) | Precipitation observed at 10 µg/ml
O=C(NN=C1C(=O)N(Cc2ccccc2)c2ccc(Cl)cc21)c1ccc([N+](=O)[O-])o1 [Compound 3h] |  | 0.312 µg/mL (≈ 0.734 µM) |  | 
O=C(NN=C1C(=O)N(Cc2ccccc2)c2ccc(F)cc21)c1ccc([N+](=O)[O-])o1 [Compound 3i] |  | 0.156 µg/mL (≈ 0.382 µM) |  | 
Cc1ccc2c(c1)C(=NNC(=O)c1ccc([N+](=O)[O-])o1)C(=O)N2Cc1ccccc1 [Compound 3j] |  | 1.25 µg/mL (≈ 3.09 µM) |  | 
NNC(=O)c1ccncc1 [Isoniazid, reference compound] | 0.063 µg/mL (≈ 0.459 µM) | 0.063 µg/mL (≈ 0.459 µM) |  | 
CO[C@H]1/C=C/O[C@@]2(C)Oc3c(C)c(O)c4c(O)c(c(/C=N/N5CCN(C)CC5)c(O)c4c3C2=O)NC(=O)/C(C)=C\C=C\[C@H](C)[C@H](O)[C@@H](C)[C@@H](O)[C@@H](C)[C@H](OC(C)=O)[C@@H]1C [Rifampin, reference compound] | 0.0125 µg/mL (≈ 0.0152 µM) | 0.0031 µg/mL (≈ 0.00377 µM) |  | 

— patent EP2604600A1, “Isatin derivatives and their use in therapy” (priority 2011, dated 2013)
